Measured values taken from patent US10494376B2, “Tetrahydroisoquinoline derived PRMT5-inhibitors” (CTXT PTY LTD, priority 2014, dated 2019).
Structures can show the parent of a compound that is named as a salt.

Biological target: Full-length PRMT5 enzyme (NCBI Reference sequence NP_006100.2) co-expressed with His6-MEP50 (Homo sapiens (Human), UniProt O14744)
Test: Revised PRMT5 Biochemical Assay
Conditions: 1 μM peptide substrate, 1 μM S-Adenosyl methionine, 4 hours at 37 degree Celsius, Transcreener EPIGEN fluorescence polarisation
Experimental: Compounds of the invention may be tested for in vitro activity in the following assay: A histone H4 derived peptide is used as substrate (amino acid sequence: […]N H2). Full-length PRMT5 enzyme (NCBI Reference sequence NP_006100.2) was co-expressed with His6-MEP50 in insect cells and purified via Nickel immobilized metal affinity and gel filtration chromatography (“the enzyme”).
The 6 μL reactions are run in Greiner brand black 384-well low volume assay plates. All reactions contained assay buffer (phosphate buffered saline, 0.01% (v/v) Tween-20, 0.01% (w/v) albumin from chicken egg white, 1 mM Dithiothreitol, 1 μM peptide substrate, 1 μM S-Adenosyl methionine, and 15 ng/reaction enzyme, with the enzyme being omitted from negative control reactions. Compounds were added in a volume of 100 nL from dilution series prepared in DMSO, positive and negative control reactions receiving the same volume DMSO without compound. The plates were sealed with adhesive seals and incubated for 4 hours at 37 degree Celsius. Reaction progress was measured using the Transcreener™ EPIGEN methyltransferase assay (BellBrook Labs, Madison, Wis.) as recommended by the manufacturer. To each reaction 2 μL detection mix were added, containing coupling enzymes, fluorescence polarisation tracer, and AMP antibody. Plates were incubated for 90 minutes before being read on a PerkinElmer EnVision™ plate reader in fluorescence polarisation mode. IC50 values were obtained from the raw readings by calculating percent inhibition (%1) for each reaction relative to controls on the same plate (% I=(I−CN)/(CP−CN) where CN/CP are the averages of the negative/positive reactions, respectively), then fitting the %1 data vs. compound concentration [I] to % I=(A+((B−A)/(1+((C/[I])^D)))) where A is the lower asymptote, B is the upper asymptote, C is the IC50 value, and D is the slope.

Chain of Full-length PRMT5 enzyme (NCBI Reference sequence NP_006100.2) co-expressed with His6-MEP50 (O14744 whole entry): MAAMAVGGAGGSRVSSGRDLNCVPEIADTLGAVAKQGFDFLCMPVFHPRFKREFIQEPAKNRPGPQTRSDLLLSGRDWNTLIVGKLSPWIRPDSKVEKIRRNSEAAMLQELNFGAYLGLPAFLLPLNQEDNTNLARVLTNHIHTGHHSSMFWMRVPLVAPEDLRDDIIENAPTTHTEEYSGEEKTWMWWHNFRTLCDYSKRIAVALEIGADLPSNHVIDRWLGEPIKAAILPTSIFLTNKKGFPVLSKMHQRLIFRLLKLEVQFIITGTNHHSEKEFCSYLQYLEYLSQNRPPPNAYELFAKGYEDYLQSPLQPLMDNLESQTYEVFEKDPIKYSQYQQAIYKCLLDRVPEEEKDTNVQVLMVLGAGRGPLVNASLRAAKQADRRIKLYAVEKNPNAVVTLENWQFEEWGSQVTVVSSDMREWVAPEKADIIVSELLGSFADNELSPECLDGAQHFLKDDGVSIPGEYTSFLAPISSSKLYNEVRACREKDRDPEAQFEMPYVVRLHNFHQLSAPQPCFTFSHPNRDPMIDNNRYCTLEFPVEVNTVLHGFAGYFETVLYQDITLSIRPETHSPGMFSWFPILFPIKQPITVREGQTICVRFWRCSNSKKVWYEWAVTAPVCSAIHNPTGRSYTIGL
Chain of Full-length PRMT5 enzyme (NCBI Reference sequence NP_006100.2) co-expressed with His6-MEP50 (Q9BQA1 whole entry partner): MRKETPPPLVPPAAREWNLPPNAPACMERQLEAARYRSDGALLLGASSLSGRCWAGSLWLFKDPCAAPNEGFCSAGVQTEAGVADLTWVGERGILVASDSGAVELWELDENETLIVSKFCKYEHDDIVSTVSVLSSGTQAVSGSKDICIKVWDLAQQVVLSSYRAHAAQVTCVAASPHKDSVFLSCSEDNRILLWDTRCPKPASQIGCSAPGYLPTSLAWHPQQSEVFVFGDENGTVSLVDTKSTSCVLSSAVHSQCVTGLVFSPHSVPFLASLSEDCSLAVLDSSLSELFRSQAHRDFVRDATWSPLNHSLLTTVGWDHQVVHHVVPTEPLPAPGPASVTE

With O=C(NC[C@@H](O)[C@@H]1Cc2ccccc2CN1)c1ccc(C(=O)N2CC3CC2CO3)cc1 (mixture of isomers) [Example 94, 4-(2-Oxa-5-azabicyclo[2.2.1]heptane-5-carbonyl)-N-((R)-2-hydroxy-2-((S)-1,2,3,4-tetrahydroisoquinolin-3-yl)ethyl)benzamide] the IC50 was 780 nM.
Work on O=C(NC[C@@H](O)[C@@H]1Cc2ccccc2CN1)c1ccccc1Cl [Example 4, 2-Chloro-N-((R)-2-hydroxy-2-((S)-1,2,3,4-tetrahydroisoquinolin-3-yl)ethyl)benzamide] yielded an IC50 of 8790 nM.
With O=C(NC[C@@H](O)[C@@H]1Cc2ccccc2CN1)c1ccccc1C(F)(F)F [Example 5, N-((R)-2-Hydroxy-2-((S)-1,2,3,4-tetrahydroisoquinolin-3-yl)ethyl)-2-(trifluoromethyl)benzamide] the IC50 was 51100 nM.
Work on O=C(NC[C@@H](O)[C@@H]1Cc2ccccc2CN1)c1ccccc1OC(F)(F)F [Example 6, N-((R)-2-Hydroxy-2-((S)-1,2,3,4-tetrahydroisoquinolin-3-yl)ethyl)-2-(trifluoromethoxy)benzamide] yielded an IC50 of 45800 nM.
With COc1ccccc1C(=O)NC[C@@H](O)[C@@H]1Cc2ccccc2CN1 [Example 7, N-((R)-2-Hydroxy-2-((S)-1,2,3,4-tetrahydroisoquinolin-3-yl)ethyl)-2-methoxybenzamide] the IC50 was 20000 nM.
In the case of O=C(NC[C@@H](O)[C@@H]1Cc2ccccc2CN1)c1ccccc1F [Example 9, 2-Fluoro-N-((R)-2-hydroxy-2-((S)-1,2,3,4-tetrahydroisoquinolin-3-yl)ethyl)benzamide], the IC50 is reported as 12500 nM.
Molecule Cc1ccccc1C(=O)NC[C@@H](O)[C@@H]1Cc2ccccc2CN1 [Example 10, N-((R)-2-Hydroxy-2-((S)-1,2,3,4-tetrahydroisoquinolin-3-yl)ethyl)-2-methylbenzamide] has an IC50 of 22500 nM.
Work on O=C(NC[C@@H](O)[C@@H]1Cc2ccccc2CN1)c1cccc(-c2ccnnc2)c1 [Example 12, N-((R)-2-Hydroxy-2-((S)-1,2,3,4-tetrahydroisoquinolin-3-yl)ethyl)-3-(pyridazin-4-yl)benzamide] yielded an IC50 of 663 nM.
O=C(NC[C@@H](O)[C@@H]1Cc2ccccc2CN1)c1ccc(-c2nnc(N3CCOCC3)o2)cc1 [Example 13, N-((R)-2-Hydroxy-2-((S)-1,2,3,4-tetrahydroisoquinolin-3-yl)ethyl)-4-(5-morpholino-1,3,4-oxadiazol-2-yl)benzamide] showed an IC50 of 551 nM.
O=C(NC[C@@H](O)[C@@H]1Cc2ccccc2CN1)c1coc(-c2ccccc2)n1 [Example 14, N-((R)-2-Hydroxy-2-((S)-1,2,3,4-tetrahydroisoquinolin-3-yl)ethyl)-2-phenyloxazole-4-carboxamide] showed an IC50 of 2330 nM.
For O=C(NC[C@@H](O)[C@@H]1Cc2ccccc2CN1)c1csc(-c2ccccc2)n1 [Example 16, N-((R)-2-Hydroxy-2-((S)-1,2,3,4-tetrahydroisoquinolin-3-yl)ethyl)-2-phenylthiazole-4-carboxamide], the IC50 was 662 nM.
With O=C(NC[C@@H](O)[C@@H]1Cc2ccccc2CN1)c1cnn(-c2cccnc2)c1 [Example 17, N-((R)-2-Hydroxy-2-((S)-1,2,3,4-tetrahydroisoquinolin-3-yl)ethyl)-1-(pyridin-3-yl)-1H-pyrazole-4-carboxamide dihydrochloride salt] the IC50 was 1270 nM.
With O=C(NC[C@@H](O)[C@@H]1Cc2ccccc2CN1)c1cccc(-c2cncnc2)c1 [Example 18, N-((R)-2-Hydroxy-2-((S)-1,2,3,4-tetrahydroisoquinolin-3-yl)ethyl)-3-(pyrimidin-5-yl)benzamide] the IC50 was 2100 nM.
Molecule CC(=O)N1CCC(N(C)C(=O)c2ccc(C(=O)NC[C@@H](O)[C@@H]3Cc4ccccc4CN3)cc2)CC1 [Example 19, N^1-(1-Acetylpiperidin-4-yl)-N^4-((R)-2-hydroxy-2-((S)-1,2,3,4-tetrahydroisoquinolin-3-yl)ethyl)-N^1 methylterephthalamide] has an IC50 of 912 nM.
With O=C(NC[C@@H](O)[C@@H]1Cc2ccccc2CN1)c1cccc(C(F)F)c1 [Example 22, 3-(Difluoromethyl)-N-((R)-2-hydroxy-2-((S)-1,2,3,4-tetrahydroisoquinolin-3-yl)ethyl)benzamide] the IC50 was 2150 nM.
For O=C(NC[C@@H](O)[C@@H]1Cc2ccccc2CN1)c1ccccc1C(F)F [Example 23, 2-(Difluoromethyl)-N-((R)-2-hydroxy-2-((S)-1,2,3,4-tetrahydroisoquinolin-3-yl)ethyl)benzamide], the IC50 was 5140 nM.
For O=C(NC[C@@H](O)[C@@H]1Cc2ccccc2CN1)c1cccc(C(=O)N2CCOCC2)c1 [Example 24, N-((R)-2-Hydroxy-2-((S)-1,2,3,4-tetrahydroisoquinolin-3-yl)ethyl)-3-(morpholine-4-carbonyl)benzamide], the IC50 was 3690 nM.
Cc1nnc(-c2ccc(C(=O)NC[C@@H](O)[C@@H]3Cc4ccccc4CN3)cc2)o1 [Example 25, N-((R)-2-Hydroxy-2-((S)-1,2,3,4-tetrahydroisoquinolin-3-yl)ethyl)-4-(5-methyl-1,3,4-oxadiazol-2-yl)benzamide] showed an IC50 of 1700 nM.
Molecule O=C(NC[C@@H](O)[C@@H]1Cc2ccccc2CN1)c1ccc(C(=O)N2CCOCC2)cn1 [Example 29, N-((R)-2-Hydroxy-2-((S)-1,2,3,4-tetrahydroisoquinolin-3-yl)ethyl)-5-(morpholine-4-carbonyl)picolinamide dihydrochloride salt] has an IC50 of 535 nM.
O=C(NC[C@@H](O)[C@@H]1Cc2ccccc2CN1)c1ccc(C(=O)N2CCC(O)(C(F)F)CC2)cc1 [Example 30, 4-(4-(Difluoromethyl)-4-hydroxypiperidine-1-carbonyl)-N-((R)-2-hydroxy-2-((S)-1,2,3,4-tetrahydroisoquinolin-3-yl)ethyl)benzamide] showed an IC50 of 139 nM.
O=C(NCC1CCOCC1)c1ccc(C(=O)NC[C@@H](O)[C@@H]2Cc3ccccc3CN2)cc1 [Example 31, N^1-((R)-2-Hydroxy-2-((S)-1,2,3,4-tetrahydroisoquinolin-3-yl)ethyl)-N^4-((tetrahydro-2H-pyran-4-yl)methyl)terephthalamide] was tested, and the IC50 was 204 nM.
For O=C(NC[C@@H](O)[C@@H]1Cc2ccccc2CN1)c1ccc(C(=O)N2CCC(CO)CC2)cc1 [Example 32, N-((R)-2-Hydroxy-2-((S)-1,2,3,4-tetrahydroisoquinolin-3-yl)ethyl)-4-(4-(hydroxymethyl)piperidine-1-carbonyl)benzamide], the IC50 was 511 nM.
Molecule CCS(=O)(=O)N1CCN(C(=O)c2ccc(C(=O)NC[C@@H](O)[C@@H]3Cc4ccccc4CN3)cc2)CC1 [Example 33, 4-(4-(Ethylsulfonyl)piperazine-1-carbonyl)-N-((R)-2-hydroxy-2-((S)-1,2,3,4-tetrahydroisoquinolin-3-yl)ethyl)benzamide] has an IC50 of 305 nM.
Molecule CS(=O)(=O)N1CCC(NC(=O)c2ccc(C(=O)NC[C@@H](O)[C@@H]3Cc4ccccc4CN3)cc2)CC1 [Example 34, N^1-((R)-2-Hydroxy-2-((S)-1,2,3,4-tetrahydroisoquinolin-3-yl)ethyl)-N^4-(1-(methylsulfonyl)piperidin-4-yl)terephthalamide hydrochloride] has an IC50 of 1680 nM.
With CC(=O)N1CCC(NC(=O)c2ccc(C(=O)NC[C@@H](O)[C@@H]3Cc4ccccc4CN3)cc2)CC1 [Example 35, N^1-(1-Acetylpiperidin-4-yl)-N^4-((R)-2-hydroxy-2-((S)-1,2,3,4-tetrahydroisoquinolin-3-yl)ethyl)terephthalamide] the IC50 was 152 nM.
In the case of O=C(NC[C@@H](O)[C@@H]1Cc2ccccc2CN1)c1ccc(C(=O)N2C[C@H]3COC[C@H]3C2)cc1 [Example 36, 4-(cis-Hexahydro-1H-furo[3,4-c]pyrrole-5-carbonyl)-N-((R)-2-hydroxy-2-((S)-1,2,3,4-tetrahydroisoquinolin-3-yl)ethyl)benzamide], the IC50 is reported as 148 nM.
Work on COC1CC2CCC(C1)N2C(=O)c1ccc(C(=O)NC[C@@H](O)[C@@H]2Cc3ccccc3CN2)cc1 (stereo partly drawn) [Example 38, N-((R)-2-Hydroxy-2-((S)-1,2,3,4-tetrahydroisoquinolin-3-yl)ethyl)-4-(3-methoxy-8-azabicyclo[3.2.1]octane-8-carbonyl)benzamide] yielded an IC50 of 599 nM.
CC(C)N(C)C(=O)c1ccc(C(=O)NC[C@@H](O)[C@@H]2Cc3ccccc3CN2)cc1 [Example 39, N^1-((R)-2-Hydroxy-2-((S)-1,2,3,4-tetrahydroisoquinolin-3-yl)ethyl)-N^4-isopropyl-N^4-methylterephthalamide] showed an IC50 of 846 nM.
O=C(NC[C@@H](O)[C@@H]1Cc2ccccc2CN1)c1ccc(C(=O)N2CCCOCC2)cc1 [Example 40, N-((R)-2-Hydroxy-2-((S)-1,2,3,4-tetrahydroisoquinolin-3-yl)ethyl)-4-(1,4-oxazepane-4-carbonyl)benzamide] gave an IC50 of 705 nM.
In the case of CN1CCN(C(=O)c2ccc(C(=O)NC[C@@H](O)[C@@H]3Cc4ccccc4CN3)cc2)CC1=O [Example 41, N-((R)-2-Hydroxy-2-((S)-1,2,3,4-tetrahydroisoquinolin-3-yl)ethyl)-4-(4-methyl-3-oxopiperazine-1-carbonyl)benzamide], the IC50 is reported as 1390 nM.
